The text below walks through data of patent US8455510B2.

Read-outs that look alike come from different tables or passages of the source.

For series [1], the system named is human osteosarcoma U2SO xenograft. Briefly: U2SO xenograft on nude mice. The following applies: Table 5, oral 2.5 mg/kg, 1-5/3 w.
Another series deals with T1, FKBP-12 protein (Homo sapiens, UniProt P62942).
T1 construct: purchased sigma Co
Briefly: SPR (surface plasma resonance) binding with FKBP-12. On the procedure:
(1) FKBP-12 protein was purchased from sigma Co.
(2) HBS-EP buffer solution (10 mM Hepes, 150 mM NaCl, 3.4 mM EDTA, 0.005% (v/v) surfactant P20, pH 7.4)
(3) Activating reagents EDC and NHS, and blocking reagents Ethanolamine, etc., were purchased from BIACORE AB Co. (Uppsala, Sweden).
(4) BIAcore 3000 and CM5 chip were purchased from BIACORE AB Co. (Uppsala, Sweden).
(2) […] was coupled to the FC2 channel on CM5 chip by using the Wizard for amino-coupling in Biacore 3000 controlling soft. 3.3 g/L of FKBP-12 protein was diluted with 10 mM NaAC (pH 4.6) to 66 μg/ml. The surface of the chip was washed by injecting a mixture of 0.1M1-(3-dimethylaminopropyl)-3-ethylcarbodiimide hydrochloride (EDCI) and 0.1M N-hydroxysuccinimide (NHS) (1:1) at a flow rate of 20 μL/min for 7 min. After that, the protein solution was injected, and then a 1M cholamine (pH 8.5) solution was fed for 7 min to block the activated surface of the chip. Preliminary screening and pharmacokinetic tests on the compounds
The binding abilities of small molecular compounds with FKBP-12 protein were evaluated by SPR (surface plasma resonance). The stock solution of the compound was 10 mM, and was diluted by HBS-EP buffer solution at given ratios. Pharmacokinetic tests were carried out by the Wizard for kinetic analysis in Biacore 3000 controlling soft. The resulted data were fitted by 1:1 Langmuir binding model or stability model in Biacore 3000 analytical soft to obtain the exact kinetic and thermodynamic constants.

A further series is described as follows: in vivo. Type of series: in vivo. The following applies: nude, mouse; for concentration at 0.5 h / concentration at 12 h / concentration at 48 h / concentration at 2 h / concentration at 5 h: CCI-779 (prototype) concentration; for Kp: read-out: AUCtissue/AUCplasma.
In series [2] the test system is human rhabdomyosarcoma RH-30 xenograft. The series is described as follows: RH-30 xenograft on nude mice.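 Further: male BALB/cA nude mice with subcutaneous RH-30 tumors, oral dosing versus solvent-fed controls, caliper tumor volume, RTV relative to grouping day, T/C as treated RTV over control RTV ×100.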 The following applies: Table 4, 5 mg/kg po, 1-5/2 w.
Source text: Animals: BALB/cA nude mice, male, 40-45 days old, body weight: 21±2 g, provided by Shanghai Institute of Materia Medica, Chinese Academy of Sciences. License No.: SCXK (Shanghai) 2004-0002. Animal number in each group: 6 in negative control group, and 6 in administration group.
The amount of inoculated cells was 5×10^6. After the xenograft was formed by inoculation, it was used after passed for 3 generations in nude mice.
In another series the test system is T Cells. The series is described as follows: Immunosuppressive activity assay: T cells inhibitory activity. It counts as cell-based. The following applies: T-cell; Table 10.
The nature of series [3]: Immunosuppressive activity assay: cytotoxicity. Type of series: cell-based.
The subject of series [4] is DNFB-induced delayed type hypersensitivity reaction. The series is described as follows: DNFB-induced delayed type hypersensitivity reaction in mice. Type of series: in vivo, BALB/c mice. The following applies: 2 mg/kg/d, oral administration; model control 0.175 mm. As for the experimental part:
The delayed type hypersensitivity (DTH) reaction in mice was induced by DNFB to evaluate the inhibition effect of the compound on DTH in vivo. […] Preparation method: the compound was dissolved in anhydrous alcohol to prepare a stock solution (50 mg/ml), which was diluted to the desired concentration when use by using a solution of 5% PEG400, 5% Tween-80 in sterile water as a solvent. […] DNFB combined with dermal protein to form a complete antigen after sensitizing on feet of mice. One week later, mice were attacked by DNFB on ears to induce a local delayed allergic reaction, i.e., the delayed type hypersensitivity reaction to cause ear swelling, while the delayed type hypersensitivity reaction would not be observed on the ear which had not been attacked. Therefore, the ear swelling can reflect the level of the delayed type hypersensitivity reaction in mice induced by DNFB. (1) 20 μl of 0.5% DNFB solution in a mixture of acetone and olive oil (4:1) as a solvent was applied on both hind legs of mice for sensitization. […] (4) Thickness of the left and right ears of the mice was measured by a micrometer screw gauge, and the swelling was calculated by subtracting the thickness of the left ear from thickness of the right ear.

Setting [5] is: in vivo, Blood Plasma, Mean Value.

Usually Kd stands for the concentration at which binding is half-saturated. Read a high Kd as weaker binding. What is called AUC(0-t) is the area under the concentration-time curve up to a stated or last time point. Higher therefore signals more exposure. By Cmax is commonly meant the highest concentration seen after dosing. As usually defined, the IC50 is the midpoint of a concentration-inhibition curve. In general, CC50 refers to the concentration at which the toxic effect on the cells reaches its halfway point.

T1 sequence (P62942 whole entry, species assumed): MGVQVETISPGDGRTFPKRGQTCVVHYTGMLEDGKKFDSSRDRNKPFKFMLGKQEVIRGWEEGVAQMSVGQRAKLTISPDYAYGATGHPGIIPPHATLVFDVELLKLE

Take `CO[C@H]1C[C@@H]2CC[C@@H](C)[C@@](O)(O2)C(=O)C(=O)N2CCCC[C@H]2C(=O)O[C@H]([C@H](C)C[C@@H]2CC[C@@H](OC(=O)C(C)(CO)CO)[C@H](OC)C2)CC(=O)[C@H](C)/C=C(\C)[C@@H](O)[C@@H](OC)C(=O)[C@H](C)C[C@H](C)/C=C/C=C/C=C/1C` [CCI-779]: in series [1], the “Body Weight (g) end” value worked out at 17.7 g, the “Body Weight (g) start” value is given as 19.9 g, the RTV was 17 ± 7.0 and the “T/C (%)” value is listed as 69.0%. Besides, in series [1], the “TV (mm^3) d21” value is 1446 ± 630 mm^3. Also, the “TV (mm^3) d0” value in series [1] (baseline) came to 85 ± 17 mm^3. Also, the “binding with FKBP12” value on FKBP-12 protein is “concentration-dependently bind”. The Kd on FKBP-12 protein (FKBP12) turned out to be 0.00102 µM. Moreover, in “in vivo” (in vivo), the “AUC0-t (ng · h/g or ng · h/ml)” value stood at 1098 ng·h/mL and the AUC(0-t) is 106 ng·h/mL. Besides, in “in vivo” (in vivo, 0.5 h), the “Sirolimus concentration, Blood Plasma, Mean Value” was 123 ng/mL; the “Sirolimus concentration, Liver, Mean Value” is listed as 142 ng/g; the “Sirolimus concentration, Tumor, Mean Value” is 9.03 ng/g. In addition, in “in vivo” (in vivo, 2 h), the “Sirolimus concentration, Blood Plasma, Mean Value” stood at 143 ng/mL; the “Sirolimus concentration, Liver, Mean Value” is 98.4 ng/g; the “Sirolimus concentration, Tumor, Mean Value” turned out to be 36.3 ng/g. In “in vivo” (in vivo, 5 h), the “Sirolimus concentration, Blood Plasma, Mean Value” stood at 58.2 ng/mL; the “Sirolimus concentration, Liver, Mean Value” is given as 83.9 ng/g; the “Sirolimus concentration, Tumor, Mean Value” is on record as 30.3 ng/g. Besides, in “in vivo” (in vivo, 12 h), the “Sirolimus concentration, Blood Plasma, Mean Value” came out at 14.2 ng/mL; the “Sirolimus concentration, Liver, Mean Value” is 33.2 ng/g; the “Sirolimus concentration, Tumor, Mean Value” is listed as 19.1 ng/g. Moreover, in the series “in vivo” (in vivo, 48 h), the “Sirolimus concentration, Blood Plasma, Mean Value” was found to be 3.08 ng/mL; the “Sirolimus concentration, Liver, Mean Value” turned out to be 9.12 ng/g; the “Sirolimus concentration, Tumor, Mean Value” came out at 16.7 ng/g. In the series “in vivo” (in vivo, Blood Plasma), this compound returned a concentration at 0.5 h of 20.5 ng/mL, a concentration at 12 h of 1.3 ng/mL and a concentration at 48 h of 0.16 ng/mL. In “in vivo” (setting [5]), this compound came in with a concentration at 0.5 h of 30.9 ng/mL, a concentration at 2 h of 11.7 ng/mL, a concentration at 5 h of 3.67 ng/mL and a concentration at 12 h of 1.27 ng/mL. Besides, the concentration at 48 h in the series “in vivo” (setting [5]) is 0.164 ng/mL. In the series “in vivo” (in vivo, Liver), this compound gave a concentration at 0.5 h of 392 ng/g, a concentration at 2 h of 103 ng/g and a concentration at 5 h of 45.5 ng/g. In the series “in vivo” (in vivo, Liver, Mean Value), the concentration at 0.5 h came to 474 ng/g, the concentration at 2 h was determined as 151 ng/g, the concentration at 5 h was 57.6 ng/g and the concentration at 12 h turned out to be 28.6 ng/g. This compound registered a concentration at 48 h in “in vivo” (in vivo, Liver, Mean Value) of 3.11 ng/g. In the series “in vivo” (in vivo, Tumor), the concentration at 2 h is 31.1 ng/g, the concentration at 12 h was found to be 9.37 ng/g and the concentration at 48 h was found to be 6.48 ng/g. In the series “in vivo” (in vivo, Tumor, Mean Value), this compound showed a concentration at 2 h of 28.8 ng/g, a concentration at 5 h of 16.6 ng/g, a concentration at 12 h of 10.5 ng/g and a concentration at 48 h of 6.52 ng/g. For the same compound, the Cmax in “in vivo” (in vivo, Cmax (ng/g or ng/ml)) was 30.9 ng/mL. For the same compound, the Kp in the series “in vivo” (liver) was found to be 16.8. In addition, in “in vivo” (tumor), the Kp was 4.77.
With `CO[C@H]1CC2CC[C@@H](C)[C@@](O)(O2)C(=O)C(=O)N2CCCCC2C(=O)O[C@H]([C@H](C)C[C@@H]2CC[C@@H](O)[C@H](OC)C2)CC(=O)[C@H](C)/C=C(\C)[C@@H](OC(=O)OCC(O)CO)[C@@H](OC)C(=O)[C@H](C)C[C@H](C)/C=C/C=C/C=C/1C` (some centres unmarked) [Y31-1], in series [2], the “Body Weight (g) end” value worked out at 21.2 g, the “Body Weight (g) start” value amounted to 20.2 g, the RTV was 2.4 ± 1.0 and the “T/C (%)” value worked out at 55.7%. Moreover, in series [2], the “TV (mm^3) d14” value turned out to be 381 ± 158 mm^3. Besides, the “TV (mm^3) d0” value in series [2] (baseline) was determined as 164 ± 44 mm^3.
As to `CO[C@H]1CC2CC[C@@H](C)[C@@](O)(O2)C(=O)C(=O)N2CCCCC2C(=O)O[C@H]([C@H](C)C[C@@H]2CC[C@@H](OC(=O)OCC3COC(C)(C)O3)[C@H](OC)C2)CC(=O)[C@H](C)/C=C(\C)[C@@H](OC(=O)OCC2COC(C)(C)O2)[C@@H](OC)C(=O)[C@H](C)C[C@H](C)/C=C/C=C/C=C/1C` (some centres unmarked) [Y230], half-maximal inhibition in the series on T Cells (IC50) required 5.3 µM. The “Safety Index CC50/IC50” value in series [3] (Table 10) was >18.9. The CC50 in series [3] (Table 10, value beyond the >100 μM bound, read-out: Cytotoxicity CC50, value in brackets) was 39800 µM; in series [3] (Table 10, read-out: Cytotoxicity CC50) it was > 100 µM.
For the compound `C[C@@H]1C[C@H]2[C@@H]3CCC4=CC(=O)C=C[C@]4(C)[C@@]3(F)[C@@H](O)C[C@]2(C)[C@@]1(O)C(=O)CO` [Dex], the “average ear swelling degree” value in series [4] is on record as 0.13 mm.
